Assay results reported in US7138361B2, “Herbicidal heterocycles” (E. I. du Pont de Nemours and Company, priority 2000, dated 2006).

Legend:
Assay type in all cases: in vivo
[1] = system: Surinam grass (Brachiaria decumbens); test: Test B postemergence; conditions: 13 to 15 days
In short: (§1)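 Visual injury scores, 0 = no effect to 100 = complete control, assigned against controls after 13 to 15 days in the greenhouse. Compounds formulated in non-phytotoxic solvent plus surfactant and applied to soil after planting (pre) or onto foliage of 1- to 4-leaf plants (post).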

[2] = system: barnyardgrass (Echinochloa crus-galli); test: Test B postemergence; conditions: 13 to 15 days
In short: as §1

[3] = system: blackgrass (Alopecurus myosuroides); test: Test B postemergence; conditions: 13 to 15 days
In short: as §1

corn (Zea mays) [4] = test: Test B postemergence; conditions: 13 to 15 days
In short: as §1

[5] = system: giant foxtail (Setaria faberii); test: Test B postemergence; conditions: 13 to 15 days
In short: as §1

[6] = system: morning glory (Ipomoea hederacea); test: Test B postemergence; conditions: 13 to 15 days
In short: as §1

[7] = system: pigweed (Amaranthus retroflexus); test: Test B postemergence; conditions: 13 to 15 days
In short: as §1

[8] = system: velvetleaf (Abutilon theophrasti); test: Test B postemergence; conditions: 13 to 15 days
In short: as §1

[9] = system: wheat (Triticum aestivum); test: Test B postemergence; conditions: 13 to 15 days
In short: as §1

[10] = system: Surinam grass (Brachiaria decumbens); test: Test B preemergence; conditions: scale 0 to 100, 0 no effect, 100 complete control
In short: as §1

[11] = system: barnyardgrass (Echinochloa crus-galli); test: Test B preemergence; conditions: scale 0 to 100, 0 no effect, 100 complete control
In short: as §1

[12] = system: cocklebur (Xanthium strumarium); test: Test B preemergence; conditions: preemergence; Rate 125 g/ha; scale 0 to 100, 0 no effect, 100 complete control
In short: as §1

corn (Zea mays) [13] = test: Test B preemergence; conditions: scale 0 to 100, 0 no effect, 100 complete control
In short: as §1

[14] = system: crabgrass (Digitaria sanguinalis); test: Test B preemergence; conditions: scale 0 to 100, 0 no effect, 100 complete control
In short: as §1

[15] = system: giant foxtail (Setaria faberii); test: Test B preemergence; conditions: scale 0 to 100, 0 no effect, 100 complete control
In short: as §1

[16] = system: lambsquarters (Chenopodium album); test: Test B preemergence; conditions: scale 0 to 100, 0 no effect, 100 complete control
In short: as §1

[17] = system: morning glory (Ipomoea hederacea); test: Test B preemergence; conditions: Preemergence, Rate 500 g/ha; scale 0 to 100, 0 no effect, 100 complete control
In short: as §1

[18] = system: pigweed (Amaranthus retroflexus); test: Test B preemergence; conditions: Preemergence, Rate 500 g/ha; scale 0 to 100, 0 no effect, 100 complete control
In short: as §1

rice (Oryza saliva) [19] = test: Test B preemergence; conditions: Preemergence, Rate 500 g/ha; scale 0 to 100, 0 no effect, 100 complete control
In short: as §1

[20] = system: velvetleaf (Abutilon theophrasti); test: Test B preemergence; conditions: Preemergence, Rate 500 g/ha; scale 0 to 100, 0 no effect, 100 complete control
In short: as §1

[21] = system: barnyardgrass (Echinochloa crus-galli); test: Test C flooded paddy test; conditions: for Barnyardgrass plant response rating: Flooded Paddy, scale 0 to 100, 0 no effect, 100 complete control; for Plant response rating, Barnyardgrass: flooded paddy test, scale 0 to 100 (0 no effect, 100 complete control)
In short: (§2)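 Response on a 0-to-100 scale (no effect to complete control) was assessed by eye versus controls. Plants had reached 2 leaves when treated in flooded paddy conditions. The assessment took place after 12–14 days of greenhouse growth.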

[22] = system: duck salad (Heteranthera limosa); test: Test C flooded paddy test; conditions: for Ducksalad plant response rating: Flooded Paddy, scale 0 to 100, 0 no effect, 100 complete control; for Plant response rating, Ducksalad: flooded paddy test, scale 0 to 100 (0 no effect, 100 complete control)
In short: as §2

rice (Oryza saliva) [23] = test: Test C flooded paddy test; conditions: for Rice plant response rating: Flooded Paddy, scale 0 to 100, 0 no effect, 100 complete control; for Plant response rating, Rice: flooded paddy test, scale 0 to 100 (0 no effect, 100 complete control)
In short: as §2

[24] = system: smallflower flatsedge (Cyperus difformis); test: Test C flooded paddy test; conditions: for Flatsedge plant response rating: Flooded Paddy, scale 0 to 100, 0 no effect, 100 complete control; for Plant response rating, Flatsedge: flooded paddy test, scale 0 to 100 (0 no effect, 100 complete control)
In short: as §2

Nightshade = test: Test C preemergence; conditions: Rate 250 g/ha, visual evaluation after 12 to 14 days
Sunflower = test: Test C preemergence; conditions: Rate 125 g/ha, scale 0 to 100, 0 no effect, 100 complete control
[25] = Rate 125 g/ha, scale 0 (no effect) to 100 (complete control)
[26] = Rate 500 g/ha, scale 0 to 100, 0 is no effect, 100 is complete control

## O=C1C(n2ccc(C3CCC3)n2)SCN1c1cccc(C(F)(F)F)c1 (centres unmarked) [Compound 37]
[1]; [25]
  Plant response rating, Surinam grass: 0
[1]; [26]
  Plant response rating, Surinam grass: 0
[2]; [25]
  Plant response rating, Barnyardgrass: 80
[2]; [26]
  Plant response rating, Barnyardgrass: 100
[3]; [25]
  Plant response rating, Blackgrass: 0
[3]; [26]
  Plant response rating, Blackgrass: 0
Corn (Zea mays) [4]; [25]
  Plant response rating, Corn: 0
Corn (Zea mays) [4]; [26]
  Plant response rating, Corn: 20
[5]; [25]
  Plant response rating, Foxtail, Giant: 60
[5]; [26]
  Plant response rating, Foxtail, Giant: 80
[6]; [25]
  Plant response rating, Morningglory: 20
[6]; [26]
  Plant response rating, Morningglory: 40
[7]; [25]
  Plant response rating, Pigweed: 20
[7]; [26]
  Plant response rating, Pigweed: 90
[8]; [25]
  Plant response rating, Velvetleaf: 0
[8]; [26]
  Plant response rating, Velvetleaf: 0
[9]; [25]
  Plant response rating, Wheat: 0
[9]; [26]
  Plant response rating, Wheat: 0
[10]; Preemergence, Rate 500 g/ha
  Plant response rating, Surinam grass: 0
[10]; preemergence, Rate 125 g/ha
  Plant response rating, Surinam grass: 0
[11]; Preemergence, Rate 500 g/ha
  Plant response rating, Barnyardgrass: 100
[11]; preemergence, Rate 125 g/ha
  Plant response rating, Barnyardgrass: 0
[12]
  Plant response rating, Cocklebur: 0
Corn (Zea mays) [13]; Preemergence, Rate 500 g/ha
  Plant response rating, Corn: 0
Corn (Zea mays) [13]; preemergence, Rate 125 g/ha
  Plant response rating, Corn: 0
[14]; Preemergence, Rate 500 g/ha
  Plant response rating, Crabgrass: 100
[14]; preemergence, Rate 125 g/ha
  Plant response rating, Crabgrass: 0
[15]; Preemergence, Rate 500 g/ha
  Plant response rating, Foxtail, Giant: 100
[15]; preemergence, Rate 125 g/ha
  Plant response rating, Foxtail, Giant: 40
[16]; Preemergence, Rate 500 g/ha
  Plant response rating, Lambsquarters: 100
[16]; preemergence, Rate 125 g/ha
  Plant response rating, Lambsquarters: 100
[17]
  Plant response rating, Morningglory: 0
[18]
  Plant response rating, Pigweed: 100
Rice (Oryza saliva) [19]
  Plant response rating, Rice: 0
[20]
  Plant response rating, Velvetleaf: 0
[21]; Rate 250 g/ha
  Barnyardgrass plant response rating: 100
[21]; Rate 500 g/ha
  Barnyardgrass plant response rating: 100
[21]; Rate 62 g/ha
  Plant response rating, Barnyardgrass: 70
[21]; Rate 125 g/ha
  Plant response rating, Barnyardgrass: 100
[22]; Rate 250 g/ha
  Ducksalad plant response rating: 90
[22]; Rate 500 g/ha
  Ducksalad plant response rating: 100
[22]; Rate 62 g/ha
  Plant response rating, Ducksalad: 20
[22]; Rate 125 g/ha
  Plant response rating, Ducksalad: 80
Rice (Oryza saliva) [23]; Rate 250 g/ha
  Rice plant response rating: 30
Rice (Oryza saliva) [23]; Rate 500 g/ha
  Rice plant response rating: 90
Rice (Oryza saliva) [23]; Rate 62 g/ha
  Plant response rating, Rice: 0
Rice (Oryza saliva) [23]; Rate 125 g/ha
  Plant response rating, Rice: 0
[24]; Rate 250 g/ha
  Flatsedge plant response rating: 100
[24]; Rate 500 g/ha
  Flatsedge plant response rating: 100
[24]; Rate 62 g/ha
  Plant response rating, Flatsedge: 100
[24]; Rate 125 g/ha
  Plant response rating, Flatsedge: 100
Nightshade
  Plant response rating (0 to 100), Nightshade: 0
Sunflower
  Plant response rating, Sunflower: 0
